{
  "source": "paper PMC8648872",
  "about": "“A host-directed macrocyclic peptide therapeutic for MDR gram negative bacterial infections” (Scientific Reports, 2021)",
  "system": "Kp-1705",
  "test": "Viability and replication fitness of Kp-1705 at sub-MIC peptide",
  "format": "cell-based, K. pneumoniae",
  "conditions": "Kp-1705 (1 x 10^9 CFU/ml), 1 h with 1.25 µg/ml MTD12813; CFU on TSA, growth at A620",
  "method": "Cryopreserved Kp-1705 was suspended in PBS to a density of ca. 1 × 10^9 CFU/ml, and incubated with saline or 1.25 µg/ml MTD12813 at room temperature for 1 h. Mice (n = 26) were then infected i.p. with 500 µl of saline- or MTD12813- pretreated Kp-1705, and a third cohort (n = 12) received 500 µl i.p. of 1.25 µg/ml MTD12813 immediately following infection with saline treated Kp-1705. Five mice from each cohort were euthanized 4 h p.i., and peritoneal lavage was collected for bacterial burden determination and cytospin preparation. In vitro antibacterial activity of MTD12813 (1.25 μg/ml) -treated cells (1 h; 37 °C) was determined by plating saline or peptide treated cells on TSA plates. Growth kinetics of saline and MTD12813-treated cells was determined by diluting samples from the 1 h incubation mixtures 1:40 into TSB and monitoring growth (620 nm) for 5.5 h at 37 °C. Antibacterial activity of MTD12813 in PF was determined by i.p. injection of naïve male BALB/c mice (n = 5 per group) with 1.25 mg/kg of MTD12813 or saline i.p. (10 ml/kg). […] Peritoneal fluid was clarified by centrifugation at 1200×g and an aliquot used to quantify MTD12813 by LC–MS/MS, as described above. Antimicrobial activity was determined by incubating PF (9:1 vol/vol) with Kp-1705 at a final density of 3 × 10^7 CFU/ml. […]\nreplication fitness of Kp-1705. […] (a) Bacterial viability was quantified as CFU on TSA plates. […]",
  "note": "Where a SMILES comes first, the peptide text is derived from it. Bridges are numbered along the chain shown (N, C = ends).",
  "data": [
    {"smiles": "CC[C@H](C)[C@@H]1NC(=O)[C@@H]2CSSC[C@H](NC(=O)[C@H]([C@@H](C)CC)NC(=O)[C@@H]3CSSC[C@H](NC1=O)C(=O)N[C@@H](C(C)C)C(=O)NCC(=O)N[C@@H](CCCNC(=N)N)C(=O)NCC(=O)N3)C(=O)N[C@@H](C(C)C)C(=O)N[C@@H](CCCNC(=N)N)C(=O)N[C@@H](CCCNC(=N)N)C(=O)N[C@@H](CCCNC(=N)N)C(=O)N2", "note": "[MTD12813] (cyclo(CICVGRGCICVRRR); disulfide 1-10, 3-8)", "values": [
      {"measurement": "bacterial viability and replication fitness", "result": "no effect on bacterial viability or replication fitness"}
    ]}
  ]
}
